Data as given in patent publication US12679825B2, “Crystalline and amorphous forms of a δ-opioid modulator” (Trevena, Inc., priority 2020, dated 2026).
In brackets after ≈: the same amount, converted by molar mass.

Assay: Approximate solubility by solvent addition technique
Assay type: physicochemical
Conditions: heating to 40° C. between solvent aliquots; for Approximate Solubility: 20° C.; for solubility: 20 °C, thermodynamic from solid
Experimental: The approximate solubility values of the amorphous free base in the selected solvent systems (see Table 1) was estimated by the solvent addition technique. The following procedure was used for the study: • Approximately 10 mg of material was weighed out into 18×2 mL push-cap vials. • Each solvent/solvent mixture was added to the appropriate vial in 5 volume aliquots (50 μL) until either 1 mL of solvent had been added or until the material dissolved. • In between additions, the sample was stirred at 40° C. • If 1000 μL of solvent was added without dissolution of the material, solubility was calculated to be below this point. • Once addition was complete, all experiments were temperature cycled between 40° C. and 5° C. (1 h hold; 0.1° C./min ramp/cool) for ca. 21 h. • Residual solids were isolated by centrifugation (0.22 μm nylon filter) or by decanting the mother liquor and analyzed by XRPD. • Anti-solvent addition (ASA) at 20° C. was carried out on solutions, followed by further temperature cycling for 21 h. • Any solids were then isolated by centrifugation (0.22 μm nylon filter) or by decanting the mother liquor and analyzed by XRPD. • Experiments which remained solutions had further AS added at 20° C. and were temperature cycled for a further 21 h. • Residual solids were isolated by centrifugation (0.22 μm nylon filter) or by decanting the mother liquor and analyzed by XRPD. • Selected isolated material was dried under vacuum at ambient temperature (ca. 20° C.) for ca. 19-21 h then re-analyzed by XRPD. • Selected dried solids were analyzed by PLM, TG/DSC, DSC, ^1H NMR spectroscopy and HPLC. • Further details can be found in Table 1.
The approximate solubility values of the amorphous free base in a range of different solvent systems was determined at ambient temperature, with heating to 40° C. between solvent aliquots. The solutions and slurries obtained were then used in initial small-scale crystallization trials (see Table 1 for details). […] The material formed gel in water. • Oiling was observed after ASA to experiments carried out in acetone, acetonitrile, DMSO, ethanol, MEK and 2-propanol. • Gum formed after ASA to experiments carried out in anisole, dichloromethane, ethyl acetate, 2-Me THF, toluene, ethanol:water 75:25 v/v and methanol:water 77:23 v/v. • After further temperature cycling, solids were obtained from experiments carried out using tBME, MEK and THF as the initial solvent system. […] (peak at 97° C.) during the first heat. A glass transition with a mid-point half-height of ca. 32° C. was observed during the first cool. […] The residual tBME could not be quantified, due to overlapping signals with the API. Residual heptane was observed, equal to 0.46% w/w, or 0.02 equivalents. • See Table 2 for further details.
Approximate solubility studies were carried out using the amorphous free base in a range of different solvent systems at 20° C., heating to 40° C. between additions of solvent aliquots. […] Poor solubility (≤10 mg/mL) was obtained in water, tBME and heptane, giving limited options for antisolvents. Once the solubility screen was complete, the residual slurries and solutions were temperature cycled, with anti-solvent addition then carried out where experiments remained solutions. […] Poorly crystalline material was isolated from 2-propanol:heptane 20:80 v/v %. Amorphous, or predominantly amorphous material was recovered from 7 experiments, using heptane, dichloromethane:heptane 20:80 v/v %, ethyl acetate:heptane 22:78 v/v %, 2-Me THF:heptane 38:62 v/v %, toluene:heptane 38:62 v/v %, ethanol:water 34:66 v/v % and methanol:water 48:52 v/v %. The remaining experiments yielded gel or oil.

## COCCOc1cccc([C@@H]2CCN(CCn3cccc3)[C@H](C)[C@H]2COc2ccc3c(c2)C(=O)NC3)c1 [free base, (−)-6-{[(trans,trans)-4-[3-(2-methoxyethoxy)phenyl]-2-methyl-1-[2-(1H-pyrrol-1-yl)ethyl]piperidin-3-yl]methoxy}-2,3-dihydro-1H-isoindol-1-one]
2-Methyl THF
  Approximate Solubility: >200 mg/mL
2-Propanol
  Approximate Solubility: >200 mg/mL
2-methyl THF, organic solvent or mixture
  solubility: > 200 mg/mL
2-propanol, organic solvent or mixture
  solubility: > 200 mg/mL
Acetone
  Approximate Solubility: >200 mg/mL
Acetonitrile
  Approximate Solubility: >200 mg/mL
Anisole
  Approximate Solubility: >200 mg/mL
DMSO, organic solvent or mixture
  solubility: > 200 mg/mL
DMSO
  Approximate Solubility: >200 mg/mL
Dichloromethane
  Approximate Solubility: >200 mg/mL
Ethanol
  Approximate Solubility: >200 mg/mL
Ethyl acetate
  Approximate Solubility: >200 mg/mL
MEK (methyl ethyl ketone), organic solvent or mixture, MEK
  solubility: > 200 mg/mL
MEK
  Approximate Solubility: >200 mg/mL
Methanol
  Approximate Solubility: >200 mg/mL
THF, organic solvent or mixture
  solubility: > 200 mg/mL
THF
  Approximate Solubility: >200 mg/mL
Toluene
  Approximate Solubility: >200 mg/mL
acetone, organic solvent or mixture
  solubility: > 200 mg/mL
acetonitrile, organic solvent or mixture
  solubility: > 200 mg/mL
anisole, organic solvent or mixture
  solubility: > 200 mg/mL
dichloromethane, organic solvent or mixture
  solubility: > 200 mg/mL
ethanol, organic solvent or mixture
  solubility: > 200 mg/mL
ethanol:water 75:25 v/v, aqueous with cosolvent or surfactant or cyclodextrin, Ethanol:Water 75:25 v/v
  solubility: > 200 mg/mL
Ethyl acetate, organic solvent or mixture
  solubility: > 200 mg/mL
heptane, organic solvent or mixture
  solubility: ≤ 10 mg/mL
methanol, organic solvent or mixture
  solubility: > 200 mg/mL
methanol:water 77:23 v/v, aqueous with cosolvent or surfactant or cyclodextrin, Methanol:Water 77:23 v/v
  solubility: 50 mg/mL (≈ 99.3 mM)
tBME, organic solvent or mixture
  solubility: ≤ 10 mg/mL
toluene, organic solvent or mixture
  solubility: > 200 mg/mL
water
  solubility: ≤ 10 mg/mL
